In PubChem BioAssay AID179 (DTP/NCI, 2004):
Several values for one entry are separate records, joined by “and”; a condition that tells them apart may be missing. Equal values may be shown once. Activity calls are given as the source filed them.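 The calls were made as follows: active = compounds giving half or more protection of infected cells from virus-caused growth loss, again on retest; inactive = the rest.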

Tested on: CEM cells HIV-1 protection, formazan growth assay
Experiment: NCI AIDS Antiviral Assay
Conditions: for IC50: measured here: growth of uninfected CEM cells
How it was run: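 Protection of CEM cells against HIV-1 was scored from cell growth (soluble formazan) across five concentrations, with parallel uninfected cells. Lack of protection may reflect toxicity.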

SMILES	outcome	EC50 [µM]	IC50
CN1Cc2ccccc2C2(COc3ccc(C=O)cc3C2=O)C1 (centres undefined)	inactive		
CN(C)CCCNC(=O)c1cc(NC(=O)c2cc(NC(=O)c3cc(NC(=O)/C=C/C(=O)Nc4cn(C)c(C(=O)Nc5cn(C)c(C(=O)Nc6cn(C)c(C(=O)NCCCN(C)C)n6)n5)n4)cn3C)cn2C)cn1C		> 50.1	> 50.1 µM
O=S(=O)(O)CCCCO		> 200	> 200 µM
N#CCC1COc2ccccc2O1 (centres undefined)		> 200	> 200 µM
CCOc1ccccc1NC(=O)C1=C(C)NC(C)=C(C(=O)Nc2ccccc2OCC)C1c1cccc([N+](=O)[O-])c1		> 12.9	> 12.9 µM
CC(C)N(CC(OC(=O)OC(C)(C)C)c1cc(OCc2ccccc2)c(OCc2ccccc2)cc1[N+](=O)[O-])C(=O)OC(C)(C)C (centres undefined)		> 100	30.2 µM
Brc1ccc(N=Nc2ccc3ccccc3n2)cc1		> 93.3	91.2 µM
NCCCCNCCCN1CCOC1=O		> 200	> 200 µM
N=c1c2ccccc2nc2oc3ccc(Cl)cc3n12		> 200	102 µM
CCOC(=O)/C(C#N)=C/c1ccc2c(-c3c(OCC)ccc4cc(/C=C(\C#N)C(=O)OCC)ccc34)c(OCC)ccc2c1		> 200	> 200 µM
CC(C)(C)[Si](C)(C)OCC1OC(n2cc(I)c(N)nc2=O)C(O[Si](C)(C)C(C)(C)C)C1O[Si](C)(C)C(C)(C)C (centres undefined)		> 200	6.76 µM
CC(C)(C)OC(=O)Cc1ccc2c(ccn2Cc2ccccc2)c1	inactive		
O=C1CCC2CCOc3ccc(O)c1c32 (centres undefined)	inactive		
C1SSCC2=C1CSSC2		> 13.2	> 13.2 µM
O=C1N=C(C=c2ccc(=Cc3[nH]c(=O)n(CN4CCCCC4)c3O)cc2)C(=O)N1CN1CCCCC1		> 100	22.4 µM
Cc1ccc(NC(=O)CCc2n[nH]c(=S)o2)cc1		> 5.5	> 5.5 µM
CC(=O)NNc1nc(C)c(C(/C=C/c2ccc(Cl)cc2)=N/NC(=S)NN)s1		> 44.7	> 44.7 µM
Cc1nc2sccn2c1C(N)=O		> 200	> 200 µM
CC(C)(C)OC(=O)[C@@H]1ON2O[C@H](OC3CCCC3(c3ccccc3)c3ccccc3)C[C@H]3OC(=O)[C@@H]1[C@H]32 (some centres undefined)		> 200	31.6 µM
N#CC1(C#N)NC(c2cccnc2)C(C#N)(C#N)NC1c1cccnc1 (centres undefined)		> 200	> 200 µM

SMILES	outcome	EC50 [µM]	IC50
CN1c2ccccc2C2=C(C3=C(CS2)C(=O)CCS3)S1(=O)=O		> 38.9	> 38.9 µM
COC1CC(OC2C(C)OC(OC3C(C)OC(OC4C(C)OC(O[C@H]5CC[C@@]6(C)C(=CC[C@]7(O)[C@@H]6C[C@@H](OC(C)=O)[C@@]6(C)[C@]7(O)CC[C@@]6(O)C(C)=O)C5)CC4OC)CC3OC)CC2OC)OC(C)C1O (some centres undefined)		> 200	> 200 µM
CCCCCCCCSC1OC(CO)C(O)C(O)C1O (centres undefined)	inactive		
N#Cc1c2c(cn3c1nc1ccccc13)CCCCC2		> 151	> 151 µM
COc1ccc(C(=O)C2COC(=O)C2=O)cc1OC (centres undefined)		> 200	> 200 µM
CC1OC(OC2C(O)COC(OC3C(C)OC(OC4C(OC(=O)[C@]56CCC(C)(C)C[C@@H]5C5=CCC7[C@@]8(C)C[C@H](O)[C@H](OC9OC(CO)C(O)C(OC%10OC(CO)C(O)C(O)C%10O)C9O)[C@@](C)(CO)[C@@H]8CC[C@@]7(C)[C@]5(C)CC6)OCC(O)C4O)C(O)C3O)C2O)C(O)C(O)C1O (some centres undefined)		> 58.9	21.4 µM
CN(C)CCOc1ccc(-c2c(Oc3ccc(Cl)cc3)c(=O)oc3ccccc23)cc1		> 200	8.13 µM
c1ccc(-c2nc3n(n2)CCC(c2ccccc2)S3)cc1 (centres undefined)		45.7	> 200 µM
CC1=C(C#N)C(N)=C2C(C)=C(C#N)C(N)=C12	inactive		
CC[CH2][Sn]([CH2]CC)([O]C(=O)Cc1ccc(F)cc1)[O][Sn]([CH2]CC)([CH2]CC)[O]C(=O)Cc1ccc(F)cc1		> 5.13	3.24 µM
CC(=O)O[C@H]1C[C@@H]2OC3C=C(C)CCC3(C)[C@@]1(C)[C@@]21CO1 (some centres undefined)		> 2	0.105 µM
O=[n+]1c2c(n([O-])c3ccc4ccccc4c31)-c1cccc3cccc-2c13		> 100	> 100 µM
Cn1c2cc(Cl)ccc2c2ccc3c(c21)C(=O)C=CC3=O		> 200	4.17 µM
CCc1c(Cc2cc(C)cc(C)c2)n(COCCO[Si](C)(C)C(C)(C)C)c(=O)[nH]c1=O		0.646	11.5 µM
CC(=O)Nc1ncc([N+](=O)[O-])s1		> 200	> 200 µM
CN(C)c1ccc(C(C=C2c3ccccc3Sc3ccccc32)=C(C#N)C#N)cc1	inactive		
COc1ccc(OCc2nc3cc(C(F)(F)F)ccc3nc2-c2ccccc2)cc1		> 200	> 200 µM
O=S1(=O)CCC(Br)c2ccccc2C1 (centres undefined)		> 200	> 200 µM
COc1cc(N=O)c(N=O)cc1[N+](=O)[O-]		> 170	15.1 µM
Cc1cc(C)c(C2=NO[C@H]3c4ccccc4OC[C@@H]23)c(C)c1		> 24.5	> 24.5 µM

SMILES	outcome	EC50 [µM]	IC50
COc1cc2ccc3c(c2cc1OC)CCc1cnoc1-3		> 47.9	> 47.9 µM
COC(=O)c1oc([N+](=O)[O-])c(Cl)c1Cl		> 151	0.776 µM
O=c1cc(-c2ccccc2)[nH]c(=S)[nH]1		> 200	> 200 µM
CC1(O)OC(=O)C2=C1CCC1C2CCC2(C)C(O)CCC12 (centres undefined)		> 200	> 200 µM
Cn1cc(C(=O)C2CCCCC2)ccc1=O		> 1150	372 µM
CCOC(=O)c1cnc(-n2[nH]c3c(c2=O)CCCC3)[nH]c1=O		> 151	29.5 µM
CCCCCCCCCCCC1OC[C@H]2O[C@@H](n3cc(C)c(=O)[nH]c3=O)C[C@H]2N1O (some centres undefined)		> 200	21.9 µM
CO/C=C/c1cc2c(cc1C(OC)OC)OCO2	inactive		
COc1c2c(c(O)c3c4c(c(C)cc13)C1OC3(C(OC)OC5CC(C)(O)C(OC6CC(C)(O)C(O)C(C)O6)C(C)O5)OC1C(OC)(O4)C31CO1)C(=O)C(O)CC2OC1CC(C)(O)C(OC(C)=O)C(C)O1 (centres undefined)		> 26.3	0.00832 µM
CS(=O)(=O)c1ccc(-c2cc(-c3ccc(S(C)(=O)=O)cc3)[n+](-c3cc(-c4ccccc4)c([O-])c(-c4ccccc4)c3)c(-c3ccc(S(C)(=O)=O)cc3)c2)cc1		> 692	> 692 µM
COc1ccc2c(c1)C/C(=C\c1cccc3ccccc13)C2=O		> 200	51.3 µM
Cc1cc(C)n2nc(N)c(C#N)c2c1C#N		> 12.9	> 12.9 µM
NC1(CSS(=O)(=O)O)CCN1 (centres undefined)		> 200	> 200 µM
CC(=O)N(C(=O)CC(=O)N/N=C\c1ccc(Br)c(N(CCC#N)CCC#N)c1)c1ccc(Cl)cc1		> 200	> 200 µM
CCCCCC=C(c1cc(C)c(OC)c(C(=O)OC)c1)c1cc(C)c(OC)c(C(=O)OC)c1		> 51.3	25.7 µM
Cc1cn(C2CC(N(O)Cc3ccccc3)C(CO[Si](C)(C)C(C)(C)C)O2)c(=O)[nH]c1=O (centres undefined)		> 200	12 µM and 36.3 µM
CC(=O)Nc1ccccc1S(=O)(=O)c1ccccc1		302	324 µM
CC1=C(C2=C(C)C(=O)C(=O)c3cc(C)ccc32)c2ccc(C)cc2C(=O)C1=O		> 200	0.0631 µM
